Measured values from patent publication US7812022B2 (GlaxoSmithKline LLC, priority 2004, dated 2010).

Experiments:
[1] = system: BT474 and HN5 tumor cell lines; test: Methylene blue growth inhibition assay (cellular Method A); format: cell-based, Human; conditions: Homo sapiens, BT-474, 72 h, 3 days, read-out: Activity (Method): growth inhibition IC50 class
How it was run: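 Colo205, BT474 and HN5 cells in DMEM/10% FBS (BT474 10,000, HN5 3,000 cells/well) treated next day with compound in DMEM, 0.3% final DMSO, for 3 days at 37° C. Biomass stained with methylene blue, solubilized, read at OD 620; IC50 interpolated by nonlinear regression from % inhibition versus vehicle.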

[2] = target: T1, ErbB2 or EGFR; test: ErbB family substrate phosphorylation enzyme assay (HTRF), Method A or Method B; format: biochemical
T1 construct: enzymes purified from a baculovirus expression system; Reagent production was conducted essentially as described in Brignola, P. S., et al, (2002) J. Biol. Chem. 277(2): 1576-1585
How it was run: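 Baculovirus-expressed EGFR or ErbB2 (0.8 or 10 nM in enzyme mix) phosphorylates biotinylated Peptide C with 20 µM ATP and 0.8 µM peptide (substrate-mix levels), MnCl2, pH 7.5. Reaction ran 90 min at 20 °C with EDTA stop and HTRF anti-phosphotyrosine read. Method A: enzyme added last; Method B: 1 h enzyme–compound preincubation.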

[3] = Method B: enzyme mix pre-incubated with compound 1 hour at 20° C., started with substrate mix
[4] = Method A: substrate mix added first, reaction started with enzyme mix

Compound	IC50 [1] [nM]	Activity (Method): pIC50 class against ErbB2 or EGFR [2, 3]	Activity (Method): pIC50 class against ErbB2 or EGFR [2, 4]
CN(C)CC(=O)Nc1ccc(Nc2nccc(-c3c(-c4cccc(NC(=O)c5c(F)cccc5F)c4)nn4ccccc34)n2)cc1 [Example 113, N-(3-{3-[2-({4-[(N,N-dimethylglycyl)amino]phenyl}-amino)-4-pyrimidinyl]pyrazolo[1,5-a]pyridin-2-yl}phenyl)-2,6-difluorobenzamide]	< 100	+++ (B) (at least one pIC50 measurement of greater than 7 against either ErbB2 or EGFR)	–
O=C(Nc1cccc(-c2nn3ccccc3c2-c2ccnc(Nc3ccc4c(c3)CNCC4)n2)c1)c1c(F)cccc1F [Example 64, 2,6-Difluoro-N-(3-{3-[2-(1,2,3,4-tetrahydro-7-isoquinolinylamino)-4-pyrimidinyl]pyrazolo[1,5-a]pyridin-2-yl}phenyl)benzamide]	< 100	+++ (B) (at least one pIC50 measurement of greater than 7 against either ErbB2 or EGFR)	–
O=C(Nc1cccc(-c2nn3ccccc3c2-c2ccnc(Nc3cccc(F)c3)n2)c1)c1ccsc1 [Example 81, N-[3-(3-{2-[(3-fluorophenyl)amino]-4-pyrimidinyl}pyrazolo[1,5-a]pyridin-2-yl)phenyl]-3-thiophenecarboxamide]	100 to 1000	++ (B) (at least one pIC50 measurement greater than 6 against either ErbB2 or EGFR but no measurement greater than pIC50 of 7)	–
O=C(Nc1cccc(-c2nn3ccccc3c2-c2ccnc(Nc3ccc(C(=O)N4CCOCC4)cc3)n2)c1)c1c(F)cccc1F [Example 100, 2,6-Difluoro-N-{3-[3-(2-{[4-(4-morpholinylcarbonyl)-phenyl]amino}-4-pyrimidinyl)pyrazolo[1,5-a]pyridin-2-yl]phenyl}benzamide]	< 100	–	+++ (A) (at least one pIC50 measurement of greater than 7 against either ErbB2 or EGFR)
Cc1ccc(Nc2nccc(-c3c(-c4cccc(NC(=O)c5cc(F)ccc5F)c4)nn4ccccc34)n2)cc1S(N)(=O)=O [Example 52, N-{3-[3-(2-{[3-(Aminosulfonyl)-4-methylphenyl]amino}-4-pyrimidinyl)pyrazolo[1,5-a]pyridin-2-yl]phenyl}-2,5-difluorobenzamide]	100 to 1000	–	+++ (A) (at least one pIC50 measurement of greater than 7 against either ErbB2 or EGFR)
O=C(Nc1cccc(-c2nn3ccccc3c2-c2ccnc(Nc3cccc(F)c3)n2)c1)c1c(F)cccc1C(F)(F)F [Example 13, 2-Fluoro-N-(3-{3-[2-(3-fluoro-phenylamino)-pyrimidin-4-yl]-pyrazolo[1,5-a]pyridin-2-yl}-phenyl)-6-trifluoromethyl-benzamide]	< 100	+++ (B) (at least one pIC50 measurement of greater than 7 against either ErbB2 or EGFR)	–
N#Cc1cc(Nc2nccc(-c3c(-c4cccc(NC(=O)c5c(F)cccc5F)c4)nn4ccccc34)n2)ccc1-n1cccc1 [Example 90]	100 to 1000	–	++ (A) (at least one pIC50 measurement greater than 6 against either ErbB2 or EGFR but no measurement greater than pIC50 of 7)
CCS(=O)(=O)Cc1ccc(Nc2nccc(-c3c(-c4cccc(NC(=O)c5cc(F)ccc5F)c4)nn4ccccc34)n2)cc1 [Example 51, N-(3-{3-[2-({4-[(ethylsulfonyl)methyl]phenyl}amino)-4-pyrimidinyl]pyrazolo[1,5-a]pyridin-2-yl}phenyl)-2,5-difluorobenzamide]	100 to 1000	–	+++ (A) (at least one pIC50 measurement of greater than 7 against either ErbB2 or EGFR)
O=C(Nc1cccc(-c2nn3ccccc3c2-c2ccnc(Nc3cccc(F)c3)n2)c1)c1sccc1Br [Example 80, 3-Bromo-N-[3-(3-{2-[(3-fluorophenyl)amino]-4-pyrimidinyl}pyrazolo[1,5-a]pyridin-2-yl)phenyl]-2-thiophenecarboxamide]	100 to 1000	++ (B) (at least one pIC50 measurement greater than 6 against either ErbB2 or EGFR but no measurement greater than pIC50 of 7)	–
O=C(Nc1cccc(-c2nn3ccccc3c2-c2ccnc(Nc3ccc(N4CCCCC4)c(F)c3)n2)c1)c1c(F)cccc1F [Example 147, 2,6-Difluoro-N-{3-[3-(2-{[3-fluoro-4-(1-piperidinyl)-phenyl]amino}-4-pyrimidinyl)pyrazolo[1,5-a]pyridin-2-yl]phenyl}benzamide]	100 to 1000	–	+++ (A) (at least one pIC50 measurement of greater than 7 against either ErbB2 or EGFR)
O=C(Nc1cccc(-c2nn3ccccc3c2-c2ccnc(Nc3ccc4c(c3)OCCO4)n2)c1)c1c(F)cccc1F [Example 114, N-(3-{3-[2-(2,3-dihydro-1,4-benzodioxin-6-ylamino)-4-pyrimidinyl]pyrazolo[1,5-a]pyridin-2-yl}phenyl)-2,6-difluorobenzamide]	< 100	–	+++ (A) (at least one pIC50 measurement of greater than 7 against either ErbB2 or EGFR)
O=C(Nc1cccc(-c2nn3ccccc3c2-c2ccnc(Nc3cccc(N4CCCC4=O)c3)n2)c1)c1cc(F)ccc1F [Example 49, 2,5-Difluoro-N-{3-[3-(2-{[3-(2-oxo-1-pyrrolidinyl)phenyl]amino}-4-pyrimidinyl)pyrazolo[1,5-a]pyridin-2-yl]phenyl}benzamide]	100 to 1000	–	+++ (A) (at least one pIC50 measurement of greater than 7 against either ErbB2 or EGFR)
O=C(Nc1cccc(-c2nn3ccccc3c2-c2ccnc(Nc3ccc(N4CCOCC4)c(F)c3)n2)c1)c1c(F)cccc1F [Example 99, 2,6-Difluoro-N-{3-[3-(2-{[3-fluoro-4-(4-morpholinyl)-phenyl]amino}-4-pyrimidinyl)pyrazolo[1,5-a]pyridin-2-yl]phenyl}benzamide]	< 100	–	+++ (A) (at least one pIC50 measurement of greater than 7 against either ErbB2 or EGFR)
O=C(Nc1cccc(-c2nn3ccccc3c2-c2ccnc(Nc3cccc(F)c3)n2)c1)c1ccc(Cl)nc1 [Example 74, 6-Chloro-N-[3-(3-{2-[(3-fluorophenyl)amino]-4-pyrimidinyl}pyrazolo[1,5-a]pyridin-2-yl)phenyl]-3-pyridinecarboxamide]	100 to 1000	++ (B) (at least one pIC50 measurement greater than 6 against either ErbB2 or EGFR but no measurement greater than pIC50 of 7)	–
O=C(Nc1cccc(-c2nn3ccccc3c2-c2ccnc(Nc3cccc(F)c3)n2)c1)c1cc(F)ccc1F [Example 39, 2,5-Difluoro-N-[3-(3-{2-[(3-fluorophenyl)amino]-4-pyrimidinyl}pyrazolo[1,5-a]pyridin-2-yl)phenyl]benzamide]	100 to 1000	+++ (B) (at least one pIC50 measurement of greater than 7 against either ErbB2 or EGFR)	–
O=C(Nc1cccc(-c2nn3ccccc3c2-c2ccnc(Nc3cccc(F)c3)n2)c1)c1sccc1Cl [Example 79, 3-Chloro-N-[3-(3-{2-[(3-fluorophenyl)amino]-4-pyrimidinyl}pyrazolo[1,5-a]pyridin-2-yl)phenyl]-2-thiophenecarboxamide]	100 to 1000	++ (B) (at least one pIC50 measurement greater than 6 against either ErbB2 or EGFR but no measurement greater than pIC50 of 7)	–
O=C(Nc1cccc(-c2nn3ccccc3c2-c2ccnc(Nc3cccc(F)c3)n2)c1)c1ccc(F)cc1Cl [Example 20, 2-Chloro-4-fluoro-N-(3-{3-[2-(3-fluoro-phenylamino)-pyrimidin-4-yl]-pyrazolo[1,5-a]pyridin-2-yl}-phenyl)-benzamide]	100 to 1000	++ (B) (at least one pIC50 measurement greater than 6 against either ErbB2 or EGFR but no measurement greater than pIC50 of 7)	–
O=C(Nc1cccc(-c2nn3ccccc3c2-c2ccnc(Nc3ccccc3)n2)c1)c1cccs1 [Example 139]	100 to 1000	–	++ (A) (at least one pIC50 measurement greater than 6 against either ErbB2 or EGFR but no measurement greater than pIC50 of 7)
Cc1noc(C)c1C(=O)Nc1cccc(-c2nn3ccccc3c2-c2ccnc(Nc3cccc(F)c3)n2)c1 [Example 38, N-[3-(3-{2-[(3-fluorophenyl)amino]-4-pyrimidinyl}-pyrazolo[1,5-a]pyridin-2-yl)phenyl]-3,5-dimethyl-4-isoxazolecarboxamide]	100 to 1000	+++ (B) (at least one pIC50 measurement of greater than 7 against either ErbB2 or EGFR)	–
Nc1ccc(C(=O)Nc2cccc(-c3nn4ccccc4c3-c3ccnc(Nc4ccccc4)n3)c2)cc1 [Example 144, 4-Amino-N-(3-{3-[2-(phenylamino)-4-pyrimidinyl]pyrazolo[1,5-a]pyridin-2-yl}phenyl)benzamide]	100 to 1000	–	+++ (A) (at least one pIC50 measurement of greater than 7 against either ErbB2 or EGFR)
Cc1cc(C(=O)Nc2cccc(-c3nn4ccccc4c3-c3ccnc(Nc4cccc(F)c4)n3)c2)n(C)n1 [Example 23, N-[3-(3-{2-[(3-Fluorophenyl)amino]-4-pyrimidinyl}pyrazolo[1,5-a]pyridin-2-yl)phenyl]-1,3-dimethyl-1H-pyrazole-5-carboxamide]	> 1000	++ (B) (at least one pIC50 measurement greater than 6 against either ErbB2 or EGFR but no measurement greater than pIC50 of 7)	–
